Experimental data taken from article PMC7725443 (Advanced healthcare materials, 2020).

Test system: OVSAHO cells
Test: Cell viability of OVSAHO cells
Type: cell-based, human
Conditions: 50 nM and 100 nM, 24 h

CC(C)C[C@H](NC(=O)[C@H](Cc1ccccc1)NC(=O)c1cnccn1)B(O)O [BTZ, bortezomib]
cell viability of OVSAHO cells treated with solely BTZ: cell compatible
